Data taken from patent US8710043B2, “TRPM8 antagonists and their use in treatments” (Amgen Inc., priority 2011, dated 2014).
pIC50: −log10 of the molar value.

target: T1, human TRPM8 (Homo sapiens, UniProt Q7Z2W7); experiment: Luminescence readout assay for measuring intracellular calcium, icilin activation; format: cell-based; details: CHO cells expressing human TRPM8, aequorin luminescence, 1 μM icilin activation; read-out: hTRPM8 IC50
T1 construct: expressed in transfected cells; host or cells: Chinese hamster ovary (CHO) cells, T-REx tetracycline-inducible system, co-transfected with aequorin
Procedure: Luminescence Readout Assay for Measuring Intracellular Calcium.
A stable Chinese hamster ovary cell line expressing human TRPM8 was generated using tetracycline inducible T-REx™ expression system from Invitrogen, Inc. (Carlsbad, Calif.). […] Twenty four hours before the assay, cells were seeded in 96-well plates and TRPM8 expression was induced with 0.5 μg/mL tetracycline. […] Potential antagonists were added 2.5 min prior to the addition of agonist, 1 μM icilin, 100 μM L-menthol, or 1 min prior to the addition of cold buffer (<10° C.). The luminescence was measured by a CCD camera based FLASH-luminometer built by Amgen, Inc. A cooling device attached to FLASH luminometer was used for cold activation.

T1 sequence (Q7Z2W7 whole entry): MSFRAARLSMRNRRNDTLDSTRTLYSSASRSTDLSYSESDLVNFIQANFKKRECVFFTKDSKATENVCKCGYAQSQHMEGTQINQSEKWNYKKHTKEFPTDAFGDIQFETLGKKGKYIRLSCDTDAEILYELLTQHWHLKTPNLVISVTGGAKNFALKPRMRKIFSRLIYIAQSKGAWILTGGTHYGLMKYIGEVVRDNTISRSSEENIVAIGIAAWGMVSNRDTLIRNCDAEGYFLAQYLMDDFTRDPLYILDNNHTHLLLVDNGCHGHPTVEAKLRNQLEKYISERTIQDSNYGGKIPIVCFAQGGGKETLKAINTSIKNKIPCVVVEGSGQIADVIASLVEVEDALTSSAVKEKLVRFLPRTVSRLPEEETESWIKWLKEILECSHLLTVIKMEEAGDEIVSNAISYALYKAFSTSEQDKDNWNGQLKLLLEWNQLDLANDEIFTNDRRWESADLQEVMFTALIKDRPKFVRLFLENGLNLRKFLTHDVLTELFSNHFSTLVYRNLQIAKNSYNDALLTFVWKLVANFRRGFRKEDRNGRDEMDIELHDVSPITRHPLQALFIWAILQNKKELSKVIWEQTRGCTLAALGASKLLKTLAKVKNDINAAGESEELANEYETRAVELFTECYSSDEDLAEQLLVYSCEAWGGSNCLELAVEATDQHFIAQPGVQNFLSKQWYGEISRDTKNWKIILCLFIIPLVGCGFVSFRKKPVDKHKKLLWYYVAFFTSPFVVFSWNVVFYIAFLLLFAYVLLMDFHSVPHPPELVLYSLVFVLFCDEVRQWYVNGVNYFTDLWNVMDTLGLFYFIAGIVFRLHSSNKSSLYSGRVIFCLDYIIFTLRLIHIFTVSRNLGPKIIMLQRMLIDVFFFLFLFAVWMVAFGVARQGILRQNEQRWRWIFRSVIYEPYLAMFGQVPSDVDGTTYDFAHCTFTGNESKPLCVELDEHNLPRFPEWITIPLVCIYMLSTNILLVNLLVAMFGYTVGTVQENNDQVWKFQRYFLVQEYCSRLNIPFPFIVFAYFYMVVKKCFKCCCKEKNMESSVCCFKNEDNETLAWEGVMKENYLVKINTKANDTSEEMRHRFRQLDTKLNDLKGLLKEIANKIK

SMILES | pIC50
C=CCc1cccnc1[C@@H](NC(=O)[C@@H](C)c1ccccc1)c1ccc(C(F)(F)F)cc1 [Example 235, (S)-N-((S)-(3-allylpyridin-2-yl)(4-(trifluoromethyl)phenyl)methyl)-2-phenylpropanamide] | 6.65
CC1(C)C[C@H]1c1cccnc1[C@@H](NC(=O)c1ccc2ncccc2c1)c1ccc(C(F)(F)F)cc1 [Example 233, N-((S)-(3-((R)-2,2-dimethylcyclopropyl)pyridin-2-yl)(4-(trifluoromethyl)phenyl)methyl)quinoline-6-carboxamide] | 7.08
COc1ccc(C(=O)N[C@@H](c2ccc(C(F)(F)F)cc2)c2ncccc2C(F)(F)F)nc1 [Example 210, (S)-5-methoxy-N-((4-(trifluoromethyl)phenyl)(3-(trifluoromethyl)pyridin-2-yl)methyl)picolinamide] | 6.82
COc1ccc([C@H](NC(=O)c2ccc(=O)[nH]c2)c2ncccc2F)cc1F [Example 336, (S)-N-((3-fluoro-4-methoxyphenyl)(3-fluoropyridin-2-yl)methyl)-6-oxo-1,6-dihydropyridine-3-carboxamide] | 6.87
CC#Cc1cccnc1[C@@H](NC(=O)c1ccc(=O)[nH]c1)c1ccc(C(F)(F)F)cc1 [Example 92, (S)-6-oxo-N-((3-(prop-1-yn-1-yl)pyridin-2-yl)(4-(trifluoromethyl)phenyl)methyl)-1,6-dihydropyridine-3-carboxamide] | 7.99
O=C(N[C@@H](c1ccc(C(F)(F)F)cc1)c1ncccc1C(F)(F)F)c1c[nH]c2ncccc12 [Example 43, (S)-N-((4-(trifluoromethyl)phenyl)(3-(trifluoromethyl)pyridin-2-yl)methyl)-1H-pyrrolo[2,3-b]pyridine-3-carboxamide] | 7.61
O=C(N[C@@H](c1ccc(C(F)(F)F)c(F)c1)c1ncccc1C(F)(F)F)c1cnccn1 [Example 111, (S)-N-((3-fluoro-4-(trifluoromethyl)phenyl)(3-(trifluoromethyl)pyridin-2-yl)methyl)pyrazine-2-carboxamide] | 7.25
CCCc1cccnc1[C@@H](NC(=O)c1ccc(=O)[nH]c1)c1ccc(C(F)(F)F)cc1 [Example 267, (S)-6-Oxo-N-((3-propylpyridin-2-yl)(4-(trifluoromethyl)-phenyl)methyl)-1,6-dihydropyridine-3-carboxamide] | 8.00
O=C(O)C1CCC(C(=O)N[C@@H](c2ccc(C(F)(F)F)cc2)c2ncccc2C(F)(F)F)CC1 (stereo partly drawn) [Example 244, (S)-4-(((4-(trifluoromethyl)phenyl)(3-(trifluoromethyl)pyridin-2-yl)methyl)carbamoyl)cyclohexanecarboxylic acid] | 5.47
Cn1ccc(C(=O)N[C@@H](c2ccc(C(F)(F)F)cc2)c2ncccc2C(F)(F)F)cc1=O [Example 49, (S)-1-methyl-2-oxo-N-((4-(trifluoromethyl)phenyl)(3-(trifluoromethyl)pyridin-2-yl)methyl)-1,2-dihydropyridine-4-carboxamide] | 6.90
O=C(N[C@@H](c1ccc(C(F)(F)F)cc1)c1ncccc1C(F)(F)F)c1cccc(C(=O)c2ccccc2)c1 [Example 246, (S)-3-benzoyl-N-((4-(trifluoromethyl)phenyl)(3-(trifluoromethyl)pyridin-2-yl)methyl)benzamide 2,2,2-trifluoroacetate] | 6.68
O=C(N[C@@H](c1cnc2cccc(Cl)c2c1)c1ncccc1C(F)(F)F)c1ccc2cccnc2c1 [Example 9, (S)-N-((5-chloroquinolin-3-yl)(3-(trifluoromethyl)pyridin-2-yl)methyl)quinoline-7-carboxamide] | 6.84
COc1cccnc1[C@@H](NC(=O)c1ccc2cccnc2c1)c1ccc(C(F)(F)F)cc1 [Example 28, (S)-N-((3-methoxypyridin-2-yl)(4-(trifluoromethyl)phenyl)methyl)quinoline-7-carboxamide] | 6.71
CC(C)(O)Cn1cc(C(=O)N[C@@H](c2ccc(C(F)(F)F)cc2)c2ncccc2F)ccc1=O [Example 303, (S)-N-((3-fluoropyridin-2-yl)(4-(trifluoromethyl)phenyl)methyl)-1-(2-hydroxy-2-methylpropyl)-6-oxo-1,6-dihydropyridine-3-carboxamide] | 6.84
Cc1cc(C(=O)N[C@@H](c2ccc(C(F)(F)F)cc2)c2ncccc2C(F)(F)F)ccn1 [Example 39, (S)-2-methyl-N-((4-(trifluoromethyl)phenyl)(3-(trifluoromethyl)pyridin-2-yl)methyl)isonicotinamide] | 7.75
O=C(Cc1cccnc1)N[C@@H](c1ccc(C(F)(F)F)cc1)c1ncccc1C(F)(F)F [Example 238, (S)-2-(pyridin-3-yl)-N-((4-(trifluoromethyl)phenyl)(3-(trifluoromethyl)pyridin-2-yl)methyl)acetamide] | 6.26
O=C(N[C@@H](c1ccc(C(F)(F)F)cc1)c1ncccc1F)c1ccc(=O)[nH]n1 [Example 317, (S)-N-((3-fluoropyridin-2-yl)(4-(trifluoromethyl)phenyl)methyl)-6-oxo-1,6-dihydropyridazine-3-carboxamide] | 7.41

The remaining compounds from weak to strong by pIC50, led by results:

pIC50 | SMILES
5.57 | Cn1cc(C(=O)N[C@@H](c2cc(F)cc(F)c2)c2ncccc2F)ccc1=O [Example 330, (S)-N-((3,5-difluorophenyl)(3-fluoropyridin-2-yl)methyl)-1-methyl-6-oxo-1,6-dihydropyridine-3-carboxamide]
5.79 | O=C(Cc1cccnc1)N[C@@H](c1ccc(OC(F)(F)F)c(F)c1)c1ncccc1F [Example 289, (S)-N-((3-fluoro-4-(trifluoromethoxy)phenyl)(3-fluoropyridin-2-yl)methyl)-2-(pyridin-3-yl)acetamide]
6.19 | Cc1cc(F)cc([C@H](NC(=O)c2ccc(=O)[nH]c2)c2ncccc2F)c1 [Example 325, (S)-N-((3-fluoro-5-methylphenyl)(3-fluoropyridin-2-yl)methyl)-6-oxo-1,6-dihydropyridine-3-carboxamide]
6.31 | O=C(N[C@@H](c1ccc(C(F)(F)F)cc1)c1ncccc1C(F)(F)F)C1CCOC1 (stereo partly drawn) [Example 225, N-((S)-(4-(trifluoromethyl)phenyl)(3-(trifluoromethyl)pyridin-2-yl)methyl)THF-3-carboxamide]
6.46 | O=C(CCc1ccccn1)N[C@@H](c1ccc(C(F)(F)F)cc1)c1ncccc1C(F)(F)F [Example 284, (S)-3-(Pyridin-2-yl)-N-((4-(trifluoromethyl)phenyl)(3-(trifluoromethyl)pyridin-2-yl)methyl)propanamide]
6.96 | O=C(N[C@@H](c1ccc(C(F)(F)F)c(F)c1)c1ccccc1C(F)(F)F)c1ccc2ncccc2c1 [Example 257, (S)-N-((3-fluoro-4-(trifluoromethyl)phenyl)(2-(trifluoromethyl)phenyl)methyl)quinoline-6-carboxamide]
6.97 | O=C(N[C@@H](c1ccc(C(F)(F)F)cc1)c1ncccc1C(F)(F)F)c1ccc(I)cc1 [Example 122, (S)-4-iodo-N-((4-(trifluoromethyl)phenyl)(3-(trifluoromethyl)pyridin-2-yl)methyl)benzamide]
7.11 | O=C(N[C@@H](c1ccc(C(F)(F)F)cc1)c1ncccc1C(F)(F)F)c1ccoc1 [Example 199, (S)-N-((4-(trifluoromethyl)phenyl)(3-(trifluoromethyl)pyridin-2-yl)methyl)furan-3-carboxamide]
7.38 | O=C(N[C@@H](c1ccc(C(F)(F)F)cc1)c1ncccc1C(F)(F)F)c1ccc2c(c1)C(=O)NC2=O [Example 94, (S)-1,3-dioxo-N-((4-(trifluoromethyl)phenyl)(3-(trifluoromethyl)pyridin-2-yl)methyl)isoindoline-5-carboxamide]
7.50 | O=C(N[C@@H](c1ccc(OC(F)(F)F)cc1)c1ncccc1F)c1ccc(-c2nc(=O)o[nH]2)cc1 [Example 316, (S)-N-((3-fluoropyridin-2-yl)(4-(trifluoromethoxy)phenyl)methyl)-4-(5-oxo-2,5-dihydro-1,2,4-oxadiazol-3-yl)benzamide]
7.75 | CC#Cc1cccnc1[C@@H](NC(=O)c1ccc2ncccc2c1)c1ccc(C(F)(F)F)cc1 [Example 93, (S)-N-((3-(prop-1-yn-1-yl)pyridin-2-yl)(4-(trifluoromethyl)phenyl)methyl)quinoline-6-carboxamide]
7.80 | O=C(N[C@@H](c1ccc(OC(F)(F)F)cc1)c1ncccc1F)c1ccn2nnnc2c1 [Example 310, (S)-N-((3-fluoropyridin-2-yl)(4-(trifluoromethoxy)phenyl)methyl)tetrazolo[1,5-a]pyridine-7-carboxamide]
7.92 | O=C(O)c1ccc(C(=O)N[C@@H](c2ccc(OC(F)(F)F)cc2)c2ncccc2F)nc1 [Example 272, (S)-6-(((3-Fluoropyridin-2-yl)(4-(trifluoromethoxy)phenyl)-methyl)carbamoyl)nicotinic Acid]
8.17 | O=C(N[C@@H](c1ccc(OC(F)(F)F)c(F)c1)c1ncccc1C(F)(F)F)c1ccc2oc(=O)[nH]c2c1 [Example 385, (S)-N-((3-fluoro-4-(trifluoromethoxy)phenyl)(3-(trifluoromethyl)pyridin-2-yl)methyl)-2-oxo-2,3-dihydrobenzo[d]oxazole-5-carboxamide]
8.18 | Cn1cnc2ccc(C(=O)N[C@@H](c3ccc(C(F)(F)F)cc3)c3ncccc3F)cc21 [Example 395, (S)-N-((3-fluoropyridin-2-yl)(4-(trifluoromethyl)phenyl)methyl)-1-methyl-1H-benzo[d]imidazole-6-carboxamide]
